Assay results as given in patent publication US12428406B2 (PMV Pharmaceuticals, Inc., priority 2019, dated 2025).

Biological target: T1, p53 Y220C (Homo sapiens, UniProt P04637, Y220C)
T1 construct: The recombinant protein was a truncation mutant containing only amino acids 94-312 of p53; made in house; host or cells: E. coli
Assay: In vitro DNA binding activity assay (HTRF / TR-FRET): stabilization of p53 Y220C and increase of its DNA binding activity
Assay type: biochemical
Conditions: recombinant His-tagged p53 Y220C DNA binding domain (aa 94-312), biotin-labeled consensus DNA, incubated at 27° C. or 29° C. for 60 min
Protocol: The ability of a compound of the invention to stabilize p53 Y220C and increase the DNA binding activity of p53 Y220C was measured by a homogeneous time-resolved fluorescence (HTRF) assay. Recombinant His-tagged p53 Y220C used in the HTRF assay was expressed in the bacterium E. coli.
The binding of the recombinant His-tagged p53 Y220C protein and the biotin-labeled consensus DNA was measured using fluorescence resonance energy transfer (FRET). For the FRET assay, the binding between the p53 mutant and the DNA sequence was measured by detecting the fluorescence of the interaction between an anti-His antibody conjugated to allophycocyanin (APC) and streptavidin conjugated to europium to detect the biotin-labeled DNA.
The test compounds were prepared as 4.5 mM stock solutions in dimethyl sulfoxide (DMSO). The compounds of the disclosure were used to test the stabilization of p53 Y220C and increase in DNA binding activity of p53 Y220C. The stock solutions were then serially diluted 3-fold in DMSO, and 1.2 μL of the diluted solutions was added to each well of a 384-well polypropylene black plate.
The test and control samples were spun at 1200 rpm for 1 minute and incubated at room temperature for 15 minutes. […] The plates were spun at 1200 rpm for 1 minute and incubated at room temperature for 20 minutes. The assay signals were monitored by reading excitation at 340 nm, and emission fluorescence at 615 nm and 665 nm on a plate reader.
The percentage of activation of protein DNA binding in the presence of a compound of the invention compared to the absence of the compound was denoted by a SC150 value, which indicated the concentration of the compound required to increase the DNA binding activity by 50%. The SC150 values were calculated using either Prism™ or ActivityBase™.

T1 sequence (P04637 94-312, change not shown): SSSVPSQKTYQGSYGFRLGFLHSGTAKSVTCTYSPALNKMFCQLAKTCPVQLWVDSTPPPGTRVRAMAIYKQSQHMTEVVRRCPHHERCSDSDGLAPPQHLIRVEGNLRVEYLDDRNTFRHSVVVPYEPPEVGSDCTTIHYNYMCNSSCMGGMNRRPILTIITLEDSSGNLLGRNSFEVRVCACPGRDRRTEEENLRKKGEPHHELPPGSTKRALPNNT

SC150 (concentration of the compound required to increase the DNA binding activity by 50%)	Structure (SMILES)
+ (+ = 0 μM ≤ SC150 < 0.05 μM)	COc1cc(C(=O)O)ccc1NCC#Cc1cc2c(NC3CCN(C[C@@H](C)O)CC3F)cccc2n1CC(F)(F)F (mixture of isomers) [Compound 911A, 4-{[3-(4-{[(3S,4R)-3-fluoro-1-(2-hydroxypropyl)piperidin-4-yl]amino}-1-(2,2,2-trifluoroethyl)-1H-indol-2-yl)prop-2-yn-1-yl]amino}-3-methoxybenzoic acid]
+ (+ = 0 μM ≤ SC150 < 0.05 μM)	CCN1CC[C@H](Nc2cccc3c2cc(C#CCNc2ccc(C(=O)O)cc2OC)n3CC(F)(F)F)[C@H](F)C1 (racemic) [Compound 958A, 4-((3-(4-(((3R,4S)-1-ethyl-3-fluoropiperidin-4-yl)amino)-1-(2,2,2-trifluoroethyl)-1H-indol-2-yl)prop-2-yn-1-yl)amino)-3-methoxybenzoic acid]
+ (+ = 0 μM ≤ SC150 < 0.05 μM)	COc1cc(S(C)(=O)=O)ccc1NCC#Cc1cc2c(N[C@H]3CCOC[C@H]3F)cccc2n1CC(F)(F)F (racemic) [Compound 1022A, rac-N-[(3R,4R)-3-fluorooxan-4-yl]-2-{3-[(4-methanesulfonyl-2-methoxyphenyl)amino]prop-1-yn-1-yl}-1-(2,2,2-trifluoroethyl)-1H-indol-4-amine]
+ (+ = 0 μM ≤ SC150 < 0.05 μM)	COc1cc(S(C)(=O)=O)ccc1NCC#Cc1cc2c(N[C@@H]3CN(C)CC[C@@H]3F)cccc2n1CC(F)(F)F (racemic) [Compound 1067A, rac-N-[(3R,4S)-4-fluoro-1-methylpiperidin-3-yl]-2-{3-[(4-methanesulfonyl-2-methoxyphenyl)amino]prop-1-yn-1-yl}-1-(2,2,2-trifluoroethyl)-1H-indol-4-amine]
+ (+ = 0 μM ≤ SC150 < 0.05 μM)	COc1cc(S(C)(=O)=O)ccc1NCC#Cc1cc2c(N[C@H]3CCC[C@H](N)C3)cccc2n1CC(F)(F)F (relative stereo) [Compound 26A, rel-(1R,3R)-N^1-(2-{3-[(4-methanesulfonyl-2-methoxyphenyl)amino]prop-1-yn-1-yl}-1-(2,2,2-trifluoroethyl)-1H-indol-4-yl)cyclohexane-1,3-diamine]
+ (+ = 0 μM ≤ SC150 < 0.05 μM)	COc1cc(S(C)(=O)=O)ccc1NCC#Cc1cc2c(N[C@H]3CCC[C@@H](O)C3)cccc2n1CC(F)(F)F (relative stereo) [Compound 30A, rel-(1R,3S)-3-[(2-{3-[(4-methanesulfonyl-2-methoxyphenyl)amino]prop-1-yn-1-yl}-1-(2,2,2-trifluoroethyl)-1H-indol-4-yl)amino] cyclohexan-1-ol]
+ (+ = 0 μM ≤ SC150 < 0.05 μM)	COc1cc(C(=O)O)ccc1NCC#Cc1cc2c(N[C@@H]3CCN(C[C@H](C)O)C[C@@H]3F)cccc2n1CC(F)(F)F (single isomer, unassigned) [Compound 921A]
+ (+ = 0 μM ≤ SC150 < 0.05 μM)	COc1cc(C(=O)NCC(CO)OC)ccc1NCC#Cc1cc2c(N[C@@H]3CCN(C)C[C@@H]3F)cccc2n1CC(F)(F)F (single isomer, unassigned) [Compound 966A]
+ (+ = 0 μM ≤ SC150 < 0.05 μM)	COc1cc(S(C)(=O)=O)ccc1NCC#Cc1cc2c(N[C@H]3CCN(C(C)=O)[C@@H](C)C3)cccc2n1CC(F)(F)F (stereo in doubt) [Compound 739A, 1-{4-[(2-{3-[(4-methanesulfonyl-2-methoxyphenyl)amino]prop-1-yn-1-yl}-1-(2,2,2-trifluoroethyl)-1H-indol-4-yl)amino]-2-methylpiperidin-1-yl}ethan-1-one]
+ (+ = 0 μM ≤ SC150 < 0.05 μM)	COc1cc(S(C)(=O)=O)ccc1NCC#Cc1cc2c(N[C@H]3CCN(C)C[C@H]3F)cccc2n1CC(F)(F)F (stereo in doubt) [Compound 773A, N-[(3R,4S)-3-fluoro-1-methylpiperidin-4-yl]-2-{3-[(4-methanesulfonyl-2-methoxyphenyl)amino]prop-1-yn-1-yl}-1-(2,2,2-trifluoroethyl)-1H-indol-4-amine]
+ (+ = 0 μM ≤ SC150 < 0.05 μM)	COc1cc(S(C)(=O)=O)ccc1NCC#Cc1cc2c(N[C@H]3CCN(C)C[C@@H]3F)cccc2n1CC(F)(F)F (stereo in doubt) [Compound 774A, N-((3S,4S)-3-fluoro-1-methylpiperidin-4-yl)-2-(3-((2-methoxy-4-(methylsulfonyl)phenyl)amino)prop-1-yn-1-yl)-1-(2,2,2-trifluoroethyl)-1H-indol-4-amine]
+ (+ = 0 μM ≤ SC150 < 0.05 μM)	COC(=O)c1ccc(NCC#Cc2cc3c(N[C@H]4CCN(C)C[C@H]4F)cccc3n2CC(F)(F)F)c(OC)c1 (stereo in doubt) [Compound 794A, methyl 4-{[3-(4-{[(3R,4S)-3-fluoro-1-methylpiperidin-4-yl]amino}-1-(2,2,2-trifluoroethyl)-1H-indol-2-yl)prop-2-yn-1-yl]amino}-3-methoxybenzoate]
+++ (+++ = 0.1 μM ≤ SC150 < 0.2 μM)	COc1cc(S(C)(=O)=O)ccc1NCC#Cc1cc2c(N(C)C)cccc2n1CC(F)(F)F [Compound 1A, 2-{3-[(4-methanesulfonyl-2-methoxyphenyl)amino]prop-1-yn-1-yl}-N,N-dimethyl-1-(2,2,2-trifluoroethyl)-1H-indol-4-amine]
++ (++ = 0.05 μM ≤ SC150 < 0.1 μM)	COCCNc1cccc2c1cc(C#CCNc1ccc(S(N)(=O)=O)cc1OC)n2CC(F)(F)F [Compound 2A, 3-methoxy-4-[(3-{4-[(2-methoxyethyl)amino]-1-(2,2,2-trifluoroethyl)-1H-indol-2-yl}prop-2-yn-1-yl)amino]benzene-1-sulfonamide]
++++ (++++ = 0.2 μM ≤ SC150 < 1 μM)	COc1cc(S(N)(=O)=O)ccc1NCC#Cc1cc2c(NCC(N)=O)cccc2n1CC(F)(F)F [Compound 3A, 2-[(2-{3-[(2-methoxy-4-sulfamoylphenyl)amino]prop-1-yn-1-yl}-1-(2,2,2-trifluoroethyl)-1H-indol-4-yl)amino]acetamide]
+ (+ = 0 μM ≤ SC150 < 0.05 μM)	COc1cc(S(N)(=O)=O)ccc1NCC#Cc1cc2c(NC(CCO)CCO)cccc2n1CC(F)(F)F [Compound 4A, 4-[(3-{4-[(1,5-dihydroxypentan-3-yl)amino]-1-(2,2,2-trifluoroethyl)-1H-indol-2-yl}prop-2-yn-1-yl)amino]-3-methoxybenzene-1-sulfonamide]
++++ (++++ = 0.2 μM ≤ SC150 < 1 μM)	COc1cc(S(C)(=O)=O)ccc1NCC#Cc1cc2c(NC(C)=O)cccc2n1CC(F)(F)F [Compound 5A, N-(2-{3-[(4-methanesulfonyl-2-methoxyphenyl)amino]prop-1-yn-1-yl}-1-(2,2,2-trifluoroethyl)-1H-indol-4-yl)acetamide]
++++ (++++ = 0.2 μM ≤ SC150 < 1 μM)	COc1cc(S(C)(=O)=O)ccc1NCC#Cc1cc2c(NC(=O)NC3CCN(C)CC3)cccc2n1CC(F)(F)F [Compound 6A, 3-(2-{3-[(4-methanesulfonyl-2-methoxyphenyl)amino]prop-1-yn-1-yl}-1-(2,2,2-trifluoroethyl)-1H-indol-4-yl)-1-(1-methylpiperidin-4-yl)urea]
++++ (++++ = 0.2 μM ≤ SC150 < 1 μM)	COc1cc(C(N)=O)ccc1NCC#Cc1cc2c(NC(=O)NC3CCN(C)CC3)cccc2n1CC(F)(F)F [Compound 7A, 3-methoxy-4-{[3-(4-{[(1-methylpiperidin-4-yl)carbamoyl]amino}-1-(2,2,2-trifluoroethyl)-1H-indol-2-yl)prop-2-yn-1-yl]amino}benzamide]
++++ (++++ = 0.2 μM ≤ SC150 < 1 μM)	COc1cc(S(C)(=O)=O)ccc1NCC#Cc1cc2c(NC(=O)N3CCN(C)CC3)cccc2n1CC(F)(F)F [Compound 8A, N-(2-{3-[(4-methanesulfonyl-2-methoxyphenyl)amino]prop-1-yn-1-yl}-1-(2,2,2-trifluoroethyl)-1H-indol-4-yl)-4-methylpiperazine-1-carboxamide]
++++ (++++ = 0.2 μM ≤ SC150 < 1 μM)	COc1cc(C(N)=O)ccc1NCC#Cc1cc2c(NC(=O)N3CCN(C)CC3)cccc2n1CC(F)(F)F [Compound 9A, N-(2-{3-[(4-carbamoyl-2-methoxyphenyl)amino]prop-1-yn-1-yl}-1-(2,2,2-trifluoroethyl)-1H-indol-4-yl)-4-methylpiperazine-1-carboxamide]
